Assay results published in patent publication US20210161189A1, “MONOESTER SUGAR DERIVATIVES AS FLAVOR MODIFIERS” (Firmenich SA, priority 2018, published 2021).

Assays:
Assay type in all cases: in vivo, human
sensory panel [1] = test: Sensory panel, dairy test composition (milk sweetened with 3% w/v sucrose); conditions: 100 ppm in milk sweetened with 3% sucrose; panel score
Description: Glucose-6-O-octanoate, manufactured according to the methods described in Example 1 above was added to a dairy test composition (milk sweetened with 3% w/v sucrose), to result in a final concentration of 100 ppm in the test composition. In parallel, a control composition, comprising milk sweetened with 3% w/v sucrose was also generated. A sensory panel consisting of between 6 to 8 persons compared the overall flavor, sweetness, acidity, bitterness, astringency, off-notes, and long-lastingness of the sweetness of the dairy test composition containing 100 ppm glucose-6-O-octanoate and the control composition. The results were analyzed using the Duncan comparison test.

sensory panel [2] = test: Sensory panel, lemon flavored alcoholic beverage; set-up: scale not given here; conditions: panel score
Description: (§1) […] In parallel, a control composition, comprising lemon flavored alcoholic beverage was also generated. A sensory panel consisting of between 6 to 8 persons compared the overall flavor, sweetness, acidity, bitterness, astringency, off-notes, and long-lastingness of the sweetness of the test composition and the control composition. The results were analyzed using the Duncan comparison test.

sensory panel [3] = test: Sensory panel, energy drink; set-up: scale not given here; conditions: panel score
Description: as §1, with “energy drink composition” for “composition, comprising lemon flavored alcoholic beverage”

sensory panel [4] = test: Sensory panel, raspberry flavored water; set-up: scale not given here; conditions: panel score
Description: as §1, with “raspberry” for “lemon”, “water” for “alcoholic beverage”

[5] = 100 ppm in lemon flavored alcoholic beverage
[6] = 200 ppm in lemon flavored alcoholic beverage

Work on `CCCCCCCC(=O)OC[C@@H](O)[C@@H](O)[C@H](O)[C@@H](O)C=O` [glucose-6-O-octanoate] yielded an Acidity (sensory panel [1]) of 0, an Astringency (sensory panel [1]) of 0.6 and a Bitterness (sensory panel [1]) of 0.8. The Long-Lasting (sensory panel [1]) was 1.4, the “Overall Flavor” value (sensory panel [1]) was 1.8 and the Acidity (sensory panel [2]; [5]) was 2. For the same compound, the Astringency (sensory panel [2]; [5]) was 1, the Off-notes (sensory panel [2]; [5]) was 0.25 and the “Overall Flavor” value (sensory panel [2]; [5]) was 3.5. The Sweetness (sensory panel [2]; [5]) was 3, the Acidity (sensory panel [2]; [6]) was 2 and the Astringency (sensory panel [2]; [6]) was 2. For the same compound, the Bitterness (sensory panel [2]; [6]) was 1.1, the Long-Lasting (sensory panel [2]; [6]) was 1.6 and the Off-notes (sensory panel [2]; [6]) was 0.4. The “Overall Flavor” value (sensory panel [2]; [6]) was 2.3, the Acidity (sensory panel [3]; 100 ppm in energy drink) was 2.17 and the Astringency (sensory panel [3]; 100 ppm in energy drink) was 0.67. The Bitterness (sensory panel [3]; 100 ppm in energy drink) was 0.83, the Long-Lasting (sensory panel [3]; 100 ppm in energy drink) was 2 and the “Overall Flavor” value (sensory panel [3]; 100 ppm in energy drink) was 3.33. The Acidity (sensory panel [3]; 200 ppm in energy drink) was 2.5, the Astringency (sensory panel [3]; 200 ppm in energy drink) was 0.29 and the Bitterness (sensory panel [3]; 200 ppm in energy drink) was 0.93. The Off-notes (sensory panel [3]; 200 ppm in energy drink) was 0.21, the “Overall Flavor” value (sensory panel [3]; 200 ppm in energy drink) was 3.5 and the Astringency (sensory panel [4]; 100 ppm in raspberry water) was 0.58. The Bitterness (sensory panel [4]; 100 ppm in raspberry water) was 0.5, the Long-Lasting (sensory panel [4]; 100 ppm in raspberry water) was 0.67 and the “Overall Flavor” value (sensory panel [4]; 100 ppm in raspberry water) was 3.33. It also gave a Sweetness (sensory panel [4]; 100 ppm in raspberry water) of 3.42, an Acidity (sensory panel [4]; 200 ppm in raspberry water) of 2.62 and a Long-Lasting (sensory panel [4]; 200 ppm in raspberry water) of 1.81. For the same compound, the “Overall Flavor” value (sensory panel [4]; 200 ppm in raspberry water) was 3.06 and the Sweetness (sensory panel [4]; 200 ppm in raspberry water) was 2.69.
